Measured values as given in BindingDB's records for PubMed 38746901 (Smith, Gambrell & Russell).

Assay: Inhibition of human recombinant GST tagged NIK incubated for 2 hrs in presence of ATP by alpha screen assay

| Compound | IC50 [nM] |
| --- | --- |
| Cc1nscc1Nc1nccc(-c2cccc(-c3cc([C@]4(O)CCN(C)C4=O)on3)n2)n1 | < 50 |
| CN1CC[C@@](O)(c2cn(-c3cccc(-c4ccnc(Nc5ccn(C)n5)n4)n3)nn2)C1=O | < 50 |
| CN1CC[C@@](O)(c2cc(-c3cccc(-c4ccnc(Nc5cnn(C)c5C5CC5)n4)n3)no2)C1=O | < 50 |
| CN1CC[C@@](O)(c2nnc(-c3cccc(-c4ccnc(Nc5cnn(C)c5Cl)n4)n3)s2)C1=O | < 50 |
| Cc1nocc1Nc1nccc(-c2cccc(-c3cc([C@]4(O)CCN(C)C4=O)on3)n2)n1 | < 50 |
| CN1CC(F)(F)[C@@](O)(c2cc(-c3cccc(-c4ccnc(Nc5cnn(C)c5)n4)n3)no2)C1=O | < 50 |
